Measured values reported in US7601716B2, “Pyridopyrazines and derivatives thereof as ALK and c-Met inhibitors” (Cephalon, Inc., priority 2006, dated 2009).

What was measured:
[1] = biological target: baculovirus-expressed ALK (Homo sapiens, UniProt Q9UM73); test: ALK Kinase Assay (ELISA/TRF, PLC-γ substrate); type: biochemical; conditions: read-out: ALK Kinase Inhibition (IC50); also: 1 µM ATP (Km level)
Procedure, shortened: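 IC50 values fitted by nonlinear sigmoidal regression (variable slope) of percent inhibition against log compound concentration. Read-out was TRF of Eu-N1 anti-phosphotyrosine antibody bound to phosphorylated, plate-coated GST-PLC-γ (10 µg/mL). Kinase reaction used ALK at 30 ng/ml for 15 min at 37 °C.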

[2] = biological target: T1, c-Met (cytoplasmic domain) (Homo sapiens, UniProt P08581); test: c-Met Kinase Assay (ELISA/TRF, PLC-γ substrate); type: biochemical; conditions: 3 μM ATP (Km level); read-out: c-Met Kinase Inhibition (IC50)
T1 construct: Reactions were initiated with 30 ng/mL c-Met (cytoplasmic domain, Invitrogen Corporation #PV3143); purchased Invitrogen Corporation PV3143
T1 sequence (P08581 956-1390 limits assumed): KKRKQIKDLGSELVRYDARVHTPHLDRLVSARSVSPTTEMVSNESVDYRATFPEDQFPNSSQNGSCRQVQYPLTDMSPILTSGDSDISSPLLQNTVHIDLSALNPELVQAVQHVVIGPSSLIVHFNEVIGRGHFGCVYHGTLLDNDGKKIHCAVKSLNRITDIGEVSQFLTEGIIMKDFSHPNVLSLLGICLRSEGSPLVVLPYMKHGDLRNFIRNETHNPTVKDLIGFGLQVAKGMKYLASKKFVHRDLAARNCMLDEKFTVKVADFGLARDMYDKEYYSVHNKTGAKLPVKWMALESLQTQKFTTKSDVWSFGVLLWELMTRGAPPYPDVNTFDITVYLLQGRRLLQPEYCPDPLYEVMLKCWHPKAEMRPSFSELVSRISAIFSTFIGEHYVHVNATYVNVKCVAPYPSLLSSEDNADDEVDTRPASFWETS
Description: Example compounds were tested for their ability to inhibit the kinase activity of baculovirus-expressed ALK using a modification of the ELISA protocol reported for trkA in Angeles, T. S. et al., Anal. Biochem. 1996, 236, 49-55, which is incorporated herein by reference in its entirety. Phosphorylation of the substrate, phospholipase C-gamma (PLC-γ) generated as a fusion protein with glutathione S-transferase (GST) as reported in Rotin, D. et al., EMBO J. 1992, 11, 559-567, which is incorporated herein by reference in its entirety, was detected with a europium-labeled anti-phosphotyrosine antibody and measured by time-resolved fluorescence (TRF). Briefly, each 96-well plate was coated with 100 μL/well of 10 μg/mL substrate (phospholipase C-γ) in Tris-buffered saline (TBS). […] The reaction was initiated by adding enzyme (30 ng/ml ALK) and was allowed to proceed at 37° C. for 15 minutes. Detection of the phosphorylated product was performed by adding 100 μl/well of Eu-N1 labeled PT66 antibody (Perkin Elmer # AD0041). Incubation at 37° C. then proceeded for one (1) hour, followed by addition of 100 μL enhancement solution (Wallac #1244-105). The plate was gently agitated and after thirty minutes, the fluorescence of the resulting solution was measured using the EnVision 2100 (or 2102) multilabel plate reader (Perkin Elmer).
Data analysis was performed using ActivityBase (IDBS, Guilford, UK). IC50 values were calculated by plotting percent inhibition versus log10 of the concentration of compound and fitting to the nonlinear regression sigmoidal dose-response (variable slope) equation in XLFit (IDBS, Guilford, UK).
Reactions were initiated with 30 ng/mL c-Met (cytoplasmic domain, Invitrogen Corporation #PV3143).

Chain of baculovirus-expressed ALK (Q9UM73 19-1620): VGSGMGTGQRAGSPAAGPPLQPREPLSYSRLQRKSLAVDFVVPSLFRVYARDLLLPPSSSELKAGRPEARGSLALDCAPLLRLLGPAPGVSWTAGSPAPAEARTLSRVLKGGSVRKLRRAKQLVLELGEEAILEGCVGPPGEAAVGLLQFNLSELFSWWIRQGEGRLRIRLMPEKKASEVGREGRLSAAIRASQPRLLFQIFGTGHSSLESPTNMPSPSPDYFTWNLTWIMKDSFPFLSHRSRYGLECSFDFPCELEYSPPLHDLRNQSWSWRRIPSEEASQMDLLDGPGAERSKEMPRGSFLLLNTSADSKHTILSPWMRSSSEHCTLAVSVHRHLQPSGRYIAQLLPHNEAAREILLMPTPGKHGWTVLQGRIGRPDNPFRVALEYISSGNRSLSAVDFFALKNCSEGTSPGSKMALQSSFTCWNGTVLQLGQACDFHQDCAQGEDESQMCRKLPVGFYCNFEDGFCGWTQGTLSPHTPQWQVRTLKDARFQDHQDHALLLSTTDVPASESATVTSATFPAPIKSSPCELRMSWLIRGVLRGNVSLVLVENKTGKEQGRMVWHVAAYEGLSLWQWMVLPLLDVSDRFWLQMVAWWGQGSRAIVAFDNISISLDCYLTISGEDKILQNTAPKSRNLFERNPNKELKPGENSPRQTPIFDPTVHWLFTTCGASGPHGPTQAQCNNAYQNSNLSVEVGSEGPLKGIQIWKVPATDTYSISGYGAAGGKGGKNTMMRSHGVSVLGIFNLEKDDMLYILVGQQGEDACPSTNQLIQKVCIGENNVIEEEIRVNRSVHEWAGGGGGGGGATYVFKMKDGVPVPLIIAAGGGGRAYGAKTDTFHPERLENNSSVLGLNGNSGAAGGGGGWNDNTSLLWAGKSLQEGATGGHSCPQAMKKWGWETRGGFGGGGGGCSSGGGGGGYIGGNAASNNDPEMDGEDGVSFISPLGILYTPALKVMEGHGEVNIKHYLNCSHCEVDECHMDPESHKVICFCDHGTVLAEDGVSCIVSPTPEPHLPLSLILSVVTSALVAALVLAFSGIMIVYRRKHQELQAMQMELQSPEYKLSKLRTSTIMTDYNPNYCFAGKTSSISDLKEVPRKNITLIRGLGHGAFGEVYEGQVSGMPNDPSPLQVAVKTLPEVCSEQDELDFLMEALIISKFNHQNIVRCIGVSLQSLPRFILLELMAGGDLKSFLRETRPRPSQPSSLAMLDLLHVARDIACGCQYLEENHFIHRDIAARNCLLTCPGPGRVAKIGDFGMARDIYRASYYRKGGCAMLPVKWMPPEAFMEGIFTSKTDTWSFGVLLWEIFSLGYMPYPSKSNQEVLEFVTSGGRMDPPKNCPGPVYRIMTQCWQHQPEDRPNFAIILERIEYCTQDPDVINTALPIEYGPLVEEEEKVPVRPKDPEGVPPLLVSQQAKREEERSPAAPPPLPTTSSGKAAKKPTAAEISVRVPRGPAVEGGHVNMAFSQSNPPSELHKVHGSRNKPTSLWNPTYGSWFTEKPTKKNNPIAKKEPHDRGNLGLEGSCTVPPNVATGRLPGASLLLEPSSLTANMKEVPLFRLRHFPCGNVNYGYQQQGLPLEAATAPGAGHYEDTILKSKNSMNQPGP

Compound	IC50 [1]	IC50 [2]
O=C(c1ccc(-c2cnc3c(c2)N(Cc2cc(F)ccc2F)CCN3)cc1)N1CCOCC1 [Example 68, {4-[1-(2,5-Difluorobenzyl)-1,2,3,4-tetrahydropyrido[2,3-b]pyrazin-7-yl]phenyl}-morpholin-4-yl-methanone]	0.1 to 1 µM	1 to 10 µM
CN1CCN(CCNC(=O)c2cnc3c(c2)N(Cc2cc(F)ccc2F)CCN3)CC1 [Example 80, 1-(2,5-Difluorobenzyl)-1,2,3,4-tetrahydropyrido[2,3-b]pyrazine-7-carboxylic acid[2(4-methylpiperazin-1-yl)ethyl]amide]	10 to 100 µM	> 100 µM
O=C(c1ccc(-c2cnc3c(c2)N(Cc2cc(F)c(F)cc2F)CCN3)cc1)N1CCC[C@H]1CN1CCCC1 [Example 84, ((S)-2-((pyrrolidin-1-yl)methyl)pyrrolidin-1-yl)-{4-[1-(2,4,5-trifluorobenzyl)-1,2,3,4-tetrahydropyrido[2,3-b]pyrazin-7-yl]phenyl}-methanone]	0.1 to 1 µM	1 to 10 µM
CN1CCN(C(=O)c2ccc(-c3cnc4c(c3)N(Cc3cc(F)c(F)cc3F)CCN4)cc2)CC1 [Example 86, (4-Methylpiperazin-1-yl)-{4-[1-(2,4,5-trifluorobenzyl)-1,2,3,4-tetrahydropyrido[2,3-b]pyrazin-7-yl]phenyl}-methanone]	1 to 10 µM	1 to 10 µM
COC(=O)C(C)(C)Nc1ncc(I)cc1[N+](=O)[O-] [Example 90, 2-(5-Iodo-3-nitro-pyridin-2-ylamino)-2-methyl-propionic acid methyl ester]	> 100 µM	> 100 µM
Fc1ccc(F)c(CN2CCNc3ncc(-c4ccnc(N5CCOCC5)c4Cl)cc32)c1Cl [Example 101, 1-(2-Chloro-3,6-difluorobenzyl)-7-(3-chloro-2-morpholin-4-yl-pyridin-4-yl)-1,2,3,4-tetrahydropyrido[2,3-b]pyrazine]	0.1 to 1 µM	1 to 10 µM
O=C(c1ccc(-c2cnc3c(c2)N(C(=O)Cc2ccccc2)CCN3)cc1)N1CCC(N2CCCC2)CC1 [Example 111, 2-Phenyl-1-{7-[4-(4-(pyrrolidin-1-yl)piperidine-1-carbonyl)phenyl]-3,4-dihydro-2H-pyrido[2,3-b]pyrazin-1-yl}-ethanone]	> 100 µM	10 to 100 µM
O=C(c1ccc(-c2cnc3c(c2)N(C(=O)Cc2cc(F)ccc2F)CCN3)cc1)N1CCC(N2CCCC2)CC1 [Example 114, 2-(2,5-Difluorophenyl)-1-{7-[4-(4-(pyrrolidin-1-yl)piperidine-1-carbonyl)phenyl]-3,4-dihydro-2H-pyrido[2,3-b]pyrazin-1-yl}ethanone]	1 to 10 µM	10 to 100 µM
O=S(=O)(c1ccccc1)N1CCNc2ncc(I)cc21 [Example 123, 1-Benzenesulfonyl-7-iodo-1,2,3,4-tetrahydropyrido[2,3-b]pyrazine]	10 to 100 µM	10 to 100 µM

The next lines start with the values.

IC50 [1]	IC50 [2]	Compound
10 to 100 µM	> 100 µM	CN1CCN(C(=O)c2cnc3c(c2)N(Cc2cc(F)ccc2F)CCN3)CC1 [Example 79, [1-(2,5-Difluorobenzyl)-1,2,3,4-tetrahydropyrido[2,3-b]pyrazin-7-yl]-(4-methylpiperazin-1-yl)methanone]
> 100 µM	> 100 µM	O=C(c1cc(F)ccc1F)N1CCNc2ncc(I)cc21 [Example 87, (2,5-Difluorophenyl)-(7-iodo-3,4-dihydro-2H-pyrido[2,3-b]pyrazin-1-yl)methanone]
10 to 100 µM	10 to 100 µM	O=C(c1cc(F)ccc1F)N1CCNc2ncc(-c3ccc(C(=O)N4CCC[C@H]4CN4CCCC4)cc3)cc21 [Example 89, (2,5-Difluorophenyl)-{7-[4-((S)-2-[(pyrrolidin-1-yl)methyl]pyrrolidine-1-carbonyl)phenyl]-3,4-dihydro-2H-pyrido[2,3-b]pyrazin-1-yl}-methanone]
> 100 µM	10 to 100 µM	O=C(Cc1ccccc1)N1CCNc2ncc(I)cc21 [Example 110, 1-(7-Iodo-3,4-dihydro-2H-pyrido[2,3-b]pyrazin-1-yl)-2-phenylethanone]
